From US20220016144A1, “STABLE AQUEOUS COMPOSITION COMPRISING OLIGOSACCHARIDES” (SOCIETE DES PRODUITS NESTLE S.A., priority 2018, published 2022)

Assay: Example 2: HPLC analysis of oligosaccharides, fructose isomers and lactose at pH 6 and 7 over aseptic filling and room temperature storage
Type: physicochemical
Description: Oligosaccharides 2′Fucosyllactose (2′FL) and Lacto-N-neotetraose (LNnT) were mixed in a 10:1 ratio (w/w) and dissolved in water to a final concentration of 10% (w/v). Out of this solution, […] samples were generated respectively having pH 6 and 7 (by addition of KOH) Such samples were subjected to heat treatment (UHT) followed by aseptic filling of small monodose bottles. Solutions at different pHs were analysed before and after filling of bottles as well as after different times of storage at room temperature (21-26° C.). Analysis was done by HPLC using a TSK gel Amide-80 (150 mm×4.6 mm, particle size: 3 μm) column and detection via a charged aerosol detector. F or 2′FL (FIG. 2a), LNnT (FIG. 2d), the fructose isomers of the added 2′FL (indicated as FL lactulose in the graphs, FIG. 2d) and of added LNnT (indicated as LNnT isomer in the graphs, FIG. 2e) as well as for their degradation products (lactose, FIG. 2c). The pH of the solution was also measured. All data are expressed as % of added oligosaccharides.

LNnT isomers formation (pH 6, compared with pH 7): much lower
oligosaccharide amounts at aseptic filling and over time (pH 6, UHT, aseptic filling, storage at 21-26° C., 2′FL:LNnT 10:1, 10% w/v): much more stable
Structure (SMILES): CC(=O)N[C@H]1[C@H](O[C@H]2[C@@H](O)[C@@H](CO)O[C@@H](O[C@H]3[C@H](O)[C@@H](O)C(O)O[C@@H]3CO)[C@@H]2O)O[C@H](CO)[C@@H](O[C@@H]2O[C@H](CO)[C@H](O)[C@H](O)[C@H]2O)[C@@H]1O (mixture of isomers) [LNnT, lacto-N-neotetraose]
